Data: patent US12048687B2, “Methods of recruiting SDF-producing macrophages” (MedRegen, LLC, priority 2013, dated 2024)
Entries after “also recorded” stand apart in the source; their conditions may differ.

Assays:
[1] = test system: splinted skin wounds; test: excisional wound splinting model, mice; format: in vivo, mouse; conditions: low-dose regimen, versus saline
Description: In vivo excisional wound model. Animals aged 8-12 weeks were anesthetized with Isoflurane. The dorsal skin was shaved and cleaned with betadine and 70% ethanol. In mice, the midline and four points 1 cm on each side of the midline were marked by pen. Two points were at the level of the costal margin and two at the iliac crests designating the sites for excision (FIG. 1A). […] The sterile disposable biopsy punch (5 mm in diameter; Miltex) was aligned vertically over the center of the mark and punched through the skin and Panniculus carnosus by applying pressure and twisting at the same time. The same procedure was repeated, generating four wounds on each animal (Tomlinson and Ferguson, 2003). The animals were house singly after regaining consciousness. For the mouse splinted wound model, one 5 mm excision was made on each side of the midline on the mid back. The donut-shaped, 0.5 mm-thick silicone splints with a diameter two times that of the wound (Grace Bio-Laboratories, Bend, OR) were then centered, sutured and glued (Krazy Glue®; Elmer's Inc., Columbus, OH) (FIG. 1F; Galiano et al., 2004).
To deter this mechanism, we performed the excisional wound splinting model, where a splinting ring is bonded tightly to the skin around the wound (FIG. 1e). The wound therefore heals through granulation and re-epithelialization, a process similar to the healing of most human skin defects.

[2] = test system: SDF-1 and F4/80 positive cells (macrophages) in wound sites; test: immunofluorescence staining for SDF-1 and F4/80; format: in vivo, mouse; conditions: mice, 5 days post-injury
Method: (§1) Immunofluorescence staining: For the immunofluorescence staining, frozen sections were fixed with acetone (−20° C.) for 10 min and dried for 1 h at room temperature. PBS containing 1% BSA and 5% normal donkey serum was used to block nonspecific background. Sections were incubated for 1.5 h at room temperature with primary antibodies included: rabbit polyclonal antibody specific for CD133 (1:100, ab19898, Abcam, Cambridge, MA), rabbit polyclonal antibody specific for c-Kit (1:100, sc-168, Santa Cruz Biotechnology, Santa Cruz, CA), goat polyclonal antibody specific for CD34 (1:100, AF4117, R&D Systems, Minneapolis, MN), mouse monoclonal antibody specific for SDF-1 (1:100, MAB310, R&D Systems), FITC-conjugated rat monoclonal antibody specific for F4/80 (1:100, 11-4801, eBioscience, San Diego, CA), mouse monoclonal antibody specific for α-SMA (1:100, ab7817, Abcam), rat monoclonal antibody specific for CD31 (1:100, 14-0311, eBioscience) or rabbit polyclonal antibody specific for HGF (1:100, sc-7949, Santa Cruz), or the combinations of two of them for double fluorescence staining. […] Tissue sections were analyzed by confocal microscopy (Carl Zeiss Microscopy, Thornwood, NY).

[3] = test system: full-thickness skin excisional wounds; test: in vivo full-thickness excisional wound model, mice; parameters: species or system mouse (C57BL/6); conditions: for day of complete wound closure: 5-mm excisions, s.c. Tacrolimus 0.1 mg kg-1 daily, AMD3100 1.0 mg kg-1 every other day, saline day 12
Description: In vivo excisional wound model. Animals aged 8-12 weeks were anesthetized with Isoflurane. The dorsal skin was shaved and cleaned with betadine and 70% ethanol. In mice, the midline and four points 1 cm on each side of the midline were marked by pen. Two points were at the level of the costal margin and two at the iliac crests designating the sites for excision (FIG. 1A). In rats, the four excisional wounds were placed 1 cm to either side of the midline and 1 cm above and below the midpoint between the costal margin and the iliac […] (FIG. 7a). The sterile disposable biopsy punch (5 mm in diameter; Miltex) was aligned vertically over the center of the mark and punched through the skin and Panniculus carnosus by applying pressure and twisting at the same time. The same procedure was repeated, generating four wounds on each animal (Tomlinson and Ferguson, 2003). The animals were house singly after regaining consciousness. For the mouse splinted wound model, one 5 mm excision was made on each side of the midline on the mid back. The donut-shaped, 0.5 mm-thick silicone splints with a diameter two times that of the wound (Grace Bio-Laboratories, Bend, OR) were then centered, sutured and glued (Krazy Glue®; Elmer's Inc., Columbus, OH) (FIG. 1F; Galiano et al., 2004). […] Each wound site was digitally photographed at the indicated time intervals, and wound areas were determined on photographs using Adobe Photoshop (version 7.0; Adobe Systems, San Jose, CA). Changes in wound areas over time were expressed as the percentage of the initial wound areas (FIG. 1). Example 1: AMD3100 plus low-dose Tacrolimus accelerated wound healing after full-thickness skin excision. Four full-thickness wounds were generated by 5-mm diameter circular excisions on the shaved back of a wild-type C57/B6 mouse (FIG. 1A). Each wound site was photographed digitally at the indicated time intervals, and wound areas were calculated using Adobe Photoshop software. Changes in wound areas over time were expressed as the percentage of the initial wound areas (FIG. 1b). […] All wound evaluations were double blinded.

[4] = test system: hair follicles and scar in healed wounds; test: histology and hair follicle quantification of re-epithelialized wounds, mice; format: in vivo, mouse; conditions: day 15
Description: Histology and microscopy. Tissues from wound sites were collected at day 3, 5, 7, 9 and 15 after injury. Quantitative analysis of hair follicles: The number of regenerated hair follicles was quantified in a double-blind fashion. In nonwounded skin, the number of hair follicles in the area from the same location as the wound were counted and compared to experimental groups (FIG. 2A and FIG. 9A; broken lines indicated wound margin). Masson's trichrome (commercial kit from Polysciences, Inc. Warrington, PA) was used to detect collagen fibers (blue color).

[5] = test system: lacZ and GFP positive (CD133 lineage) cells in granulation tissues; test: CD133 lineage tracing in wounded CD133+/C-L mice; format: in vivo, mouse (CD133+/C-L); conditions: 5 days after wounding, versus saline group 1
Method: To activate CreERT2 expressed from the CD133C-L locus, thereby irreversibly activating GFP expression in CD133+ cells and their progeny, 7 days prior to surgery, adult mT/mG; CD133+/C-L-RosaEGFP mice were injected intraperitoneally with 5.0 mg of tamoxifen (Sigma) dissolved in corn oil (FIG. 6a; Muzumdar et al., 2007). […] Animal were sacrificed by CO2 euthanasia at indicated time points and skin samples including and surrounding the wound area were excised, fixed in 2% paraformaldehyde overnight at 4° C., cryo-protected in 30% sucrose overnight at 4° C. and frozen in OCT (optimum cutting temperature). Frozen sections were obtained using a Leica cryostat and slides were washed in PBS for 5 min. The lacZ analysis was performed with commercial β-Galactosidase staining kit (BioVision Inc. Milpitas, CA) utilizes X-gal as the substrate. […] For GFP microscopy, the skin sections were overlaid with mounting medium with DAPI (Vector Laboratories Inc., Burlingame, CA) and imaged with a confocal fluorescence microscopy (Carl Zeiss Microscopy, Thornwood, NY). To identify structure of lacZ- and GFP-positive tissues and cells, the same section was sequentially stained with DAPI for GFP fluorescence studies, followed by staining with X-gal and hematoxylin and eosin (H&E) (IHC World, Woodstock, MD), according to the manufacturer's instructions. […]

[6] = test system: skin excisional wounds in diabetic rats; test: skin excisional wound healing in STZ-induced diabetic rats; format: in vivo, rat (Lewis); conditions: Tacrolimus 0.1 mg/kg daily, AMD3100 1.0 mg/kg every two days s.c., saline day 23
Description: Diabetic rat model. Streptozotocin (STZ) is an antibiotic that can cause pancreatic beta-cell destruction, so it is widely used experimentally as an agent capable of inducing insulin-dependent diabetes mellitus (IDDM), also known as type 1 diabetes mellitus (T1DM). The most common animal model of human diabetes is streptozotocin (STZ)-induced diabetes in the rat. Streptozotocin (STZ)-induced diabetic rat model used to determine the skin wound healing. All rats (aged at 12-16 weeks) developed diabetes (blood glucose >450 mg/dL) 2 weeks after STZ injection (50 mg/kg, i.p.). The four excisional wounds were placed 1 cm to either side of the midline and 1 cm above and below the midpoint between the costal margin and the iliac crests. The sterile disposable biopsy punch (5 mm in diameter; Miltex) was aligned vertically over the center of the mark and punched through the skin and Panniculus carnosus by applying pressure and twisting at the same time. The same procedure was repeated, generating four wounds on each animal. Treatment and wound measurement. […] Each wound site was digitally photographed at the indicated time intervals, and wound areas were determined on photographs using Adobe Photoshop (version 7.0; Adobe Systems, San Jose, CA). Changes in wound areas over time were expressed as the percentage of the initial wound areas. All wound evaluations were double blinded.

[7] = test system: α-smooth muscle actin (SMA) positive myofibroblast cells; test: immunofluorescence staining for α-SMA; format: in vivo, mouse; conditions: mice, five days; versus saline group 1
Method: as §1

[8] = test system: full-thickness burn wounds; test: burn wound model in mice; format: in vivo, mouse; conditions: burned mice; Tacrolimus 0.1 mg/kg daily, AMD3100 1.0 mg/kg every two days s.c.; saline day 26
Method: Burn wound model in mice. Mice aged […] were anesthetized with 3% isoflurane (Baxter Healthcare Co., Deerfield, IL, USA) using an anesthesia machine, shaved on the dorsum and depilated with Nair cream (Church & Dwight Co., Princeton, NJ, USA). The burn wound was generated as previously reported (Arch Surg 2010; 145: 259-266). Briefly, a custom made 100-g aluminum rod was heated in a 100° C. water bath for 5 min. One burns of 1.2-cm diameter were produced on the dorsum of each mouse. To assure burn uniformity, only the weight of the rod provided pressure to the skin surface. Contact time of 4 s measured with a metronome was chosen to produce a standardized full-thickness burn. The burns were third degree including destruction of the skin, subcutaneous tissue and the Panniculous carnosus. Buprenorphine (0.1 mg/kg) was administrated subcutaneously for analgesia. Treatment and wound measurement. […] Each wound site was digitally photographed at the indicated time intervals, and wound areas were determined on photographs using Adobe Photoshop (version 7.0; Adobe Systems, San Jose, CA). Changes in wound areas over time were expressed as the percentage of the initial wound areas. All wound evaluations were double blinded.

[9] = test system: SDF-1 mRNA; test: semi-quantitative RT-PCR of granulation tissues, SDF-1; format: in vivo, mouse; conditions: mice, 5 days post-injury
Method: Semiquantitative reverse transcription polymerase chain reaction analysis. Skin specimens were kept frozen at −80° C. until homogenized for RNA extraction using the TRIzol Reagent (Invitrogen, Carlsbad, CA, USA). First strand cDNA synthesis was then performed on 5 μg of total RNA using the superscript first-strand synthesis system for reverse transcription polymerase chain reaction (RT-PCR; Invitrogen) according to the manufacturer's instructions. The PCR contained 1 μL of deoxynucleoside triphosphate mix (10 mM each dNTP), 1 μL of 10 μM each primer, 0.4 μL, (5 IU μL−1) of Platinum Taq polymerase (Invitrogen), 1.5 μL of 50 mM MgCl2 and 2 μL […] as template in a 50 μL reaction solution. Thermal cycling was started with one cycle at 94° C. for 4 min. This was followed by 25-35 cycles at 94° C. for 30 s, 59° C. for 30 s, 72° C. for 30 s and 72° C. for final extension for 10 min. PCR products were electrophoresed on 1.2% agarose gels and visualized with GelStar® Stain (Lonza Rockland Inc., Rockland, ME). […] The expression levels of target mRNA were quantified by densitometry and normalized with the corresponding internal control.

[10] = test system: cell migration stimulated by CXCL12; conditions: cited from earlier work
[11] = test system: c-Kit+, CD34+, CD133+ cells in wound tissue; test: immunofluorescence staining of wound sections for stem cell markers; format: in vivo, mouse; conditions: mice, 5 days post-injury
Method: as §1

SMILES: C=CC[C@@H]1/C=C(\C)C[C@H](C)C[C@H](OC)[C@H]2O[C@@](O)(C(=O)C(=O)N3CCCC[C@H]3C(=O)O[C@H](/C(C)=C/[C@@H]3CC[C@@H](O)[C@H](OC)C3)[C@H](C)[C@@H](O)CC1=O)[C@H](C)C[C@@H]2OC [Tacrolimus]
- wound repair in splinted wounds [1]: accelerated
- number of SDF-1 and F4/80 positive cells in wound sites [2]: significantly greater
- day of complete wound closure [3]: 11 days
- number of hair follicles in re-epithelialized wound [4]: few hair follicles
- numbers of lacZ and GFP positive cells in granulation tissues [5]: significantly higher
- day of complete wound closure [6]: 21 days
- number of α-SMA positive myofibroblast cells in granulation tissues [7]: increased
- day of complete wound closure [8]: 21 days
- SDF-1 mRNA expression in granulation tissues [9]: significantly increased

SMILES: c1cc(CN2CCCNCCNCCCNCC2)ccc1CN1CCCNCCNCCCNCC1 [AMD3100, 1,1′-[1,4-phenylenebis(methylene)]bis-1,4,8,11-tetraazacyclo-tetradecane]
- wound repair in splinted wounds [1]: accelerated
- day of complete wound closure [3]: 11 days
- effect of high doses on skin wound healing ([3]; Tacrolimus 1.0 mg kg-1 daily, AMD3100 5.0 mg kg-1 every two days, versus saline): no significant difference; also recorded: failed to demonstrate significant difference
- number of hair follicles in re-epithelialized wound [4]: few hair follicles
- numbers of lacZ and GFP positive cells in granulation tissues [5]: significantly higher
- IC50 [10]: 51 nM
- number of CD133+, c-Kit+ and CD34+ cells in wound tissue sections [11]: relatively mild recruitment of stem cells
- day of complete wound closure [6]: 21 days
- number of α-SMA positive myofibroblast cells in granulation tissues [7]: increased
- day of complete wound closure [8]: 23 days
